{
  "source": "patent US11319303B2",
  "about": "(WIGEN BIOMEDICINE TECHNOLOGY (SHANGHAI) CO., LTD., priority 2017, dated 2022)",
  "note": "Structures can show the parent of a compound that is named as a salt.",
  "data": [
    {"molecular_target": "LC3B (Homo sapiens, UniProt Q9GZQ8)", "experiment": "Fluorescence Polarization (FP) Assay: displacement of FITC-labeled peptide from GST-LC3B", "assay_type": "binding", "details": "not given", "description": "(§1) The compounds of the present invention for regulating the autophagy-related protein LC3B were tested by Fluorescence Polarization (FP) Assay.\n(§2) Fluorescence Polarization (FP) Assay Test", "units": {"IC50": "µM"}, "values": [
      {"smiles": "CN(C)C=C1C(=O)CC(C2CCCCC2)CC1=O", "note": "(stereo not shown) [Compound 262, 4-((dimethylamino)methylene)-[1,1′-bi(cyclohexane)]-3,5-dione]", "IC50": "< 3"},
      {"smiles": "O=C1CC(c2ccccc2)CC(=O)C1=CNC1CCSC1=O", "note": "(stereo not shown) [Compound 137, 2-(((2-oxotetrahydro-thiophen-3-yl)amino)methylene)-5-phenylcyclohexane-1,3-dione]", "IC50": "3 to 15"},
      {"smiles": "CN(C)CCNC=C1C(=O)CC(c2cccc(F)c2F)CC1=O", "note": "(stereo not shown) [Compound 304, 5-(2,3-difluorophenyl)-2-(((2-(dimethylamino)ethyl)amino)methylene) cyclohexane-1,3-dione]", "IC50": "< 3"},
      {"smiles": "COc1ccc(C2CC(=O)C(=CNCCN(C)C)C(=O)C2)c(F)c1F", "note": "(stereo not shown) [Compound 403, 5-(2,3-difluoro-4-methoxyphenyl)-2-(((2-(dimethylamino)ethyl)amino)methylene) cyclohexane-1,3-dione]", "IC50": "< 3"}
    ]},
    {"molecular_target": "LC3B (Homo sapiens, UniProt Q9GZQ8)", "experiment": "Fluorescence Polarization (FP) Assay: displacement of FITC-labeled peptide from GST-LC3B", "assay_type": "binding", "details": "Fluorescence Polarization assay; GST-LC3B 180 nM, FITC-labeled peptide 18 nM, 25° C.; read-out: IC50", "description": "as §1, §2", "units": {"IC50": "µM"}, "values": [
      {"smiles": "O=C1CC(c2ccc(-n3ccnc3)nc2)CC(=O)C1=CNCCN1CCN(CCO)CC1", "note": "(stereo not shown) [Compound 82, 5-(6-(1H-imidazol-1-yl)pyridin-3-yl)-2-(((2-(4-(2-hydroxyethyl)piperazin-1-yl)ethyl)amino)methylene) cyclohexane-1,3-dione]", "IC50": "15 to 100"},
      {"smiles": "O=C1CC(c2ccccc2)C(C(=O)N2CCOCC2)C(=O)C1=CNCCN1CCN(CCO)CC1", "note": "(stereo not shown) [Compound 190, 2-(((2-(4-(2-hydroxyethyl)piperazin-1-yl)ethyl)amino)methylene)-4-(morpholine-4-carbonyl)-5-phenylcyclo-hexane-1,3-dione]", "IC50": "15 to 100"},
      {"smiles": "CC(C)C(=O)N1CCN(CCNC=C2C(=O)CC(c3ccccc3)CC2=O)CC1", "note": "(stereo not shown) [Compound 211, 2-(((2-(4-isobutyrylpiperazin-1-yl)ethyl)amino)methylene)-5-phenylcyclohexane-1,3-dione]", "IC50": "< 3"},
      {"smiles": "COc1cc(Br)c(C2CC(=O)C(=CO)C(=O)C2)cc1OC", "note": "(stereo not shown) [Compound 433, 2-(hydroxymethylene)-5-(2-bromo-4,5-dimethoxyphenyl) cyclohexane-1,3-dione]", "IC50": "< 3"},
      {"smiles": "CC(C)(C)OC(=O)C1C(=O)C(=CNCCN2CCN(CCO)CC2)C(=O)CC1c1ccccc1", "note": "(stereo not shown) [Compound 334, tert-butyl 3-(((2-(4-(2-hydroxyethyl)piperazin-1-yl)ethyl)amino)methylene)-2,4-dioxo-6-phenylcyclohexane-1-carboxylate]", "IC50": "3 to 15"},
      {"smiles": "O=C1C(=CNCCN2CCN(CCO)CC2)C(=O)c2ccccc21", "note": "[Compound 9, 2-(((2-(4-(2-hydroxyethyl)piperazin-1-yl)ethyl)amino)methylene)-1H-indene-1,3(2H)-dione]", "IC50": "100 to 1000"},
      {"smiles": "O=C1CC(c2ccccc2)CC(=O)C1=CNCCN1CCN(C(=O)Cc2ccccc2)CC1", "note": "(stereo not shown) [Compound 221, 5-phenyl-2-(((2-(4-(2-phenylacetyl)piperazin-1-yl)ethyl)amino)methylene) cyclohexane-1,3-dione]", "IC50": "< 3"},
      {"smiles": "CS(=O)(=O)c1ccc(C2CC(=O)C(=CNCCN3CCN(CCO)CC3)C(=O)C2)cc1", "note": "(stereo not shown) [Compound 65, 2-(((2-(4-(2-hydroxyethyl)piperazin-1-yl)ethyl)amino)methylene)-5-(4-(methylsulfonyl)phenyl) cyclohexane-1,3-dione]", "IC50": "100 to 1000"},
      {"smiles": "O=C1CC(CCc2ccc3c(c2)OCO3)CC(=O)C1=CO", "note": "(stereo not shown) [Compound 445, 2-(hydroxymethylene)-5-(2-(benzo[d] [1,3]dioxo-5-yl)ethyl)-cyclohexane-1,3-dione]", "IC50": "15 to 100"},
      {"smiles": "O=C1CC(c2ccnc3ccccc23)CC(=O)C1=CNCCN1CCN(CCO)CC1", "note": "(stereo not shown) [Compound 62, 2-(((2-(4-(2-hydroxyethyl)piperazin-1-yl)ethyl)amino)methylene)-5-(quinolin-4-yl) cyclohexane-1,3-dione]", "IC50": "3 to 15"},
      {"smiles": "O=C1CC(c2c[nH]c3ncccc23)CC(=O)C1=CNCCN1CCN(CCO)CC1", "note": "(stereo not shown) [Compound 18, 2-(((2-(4-(2-hydroxyethyl)piperazin-1-yl)ethyl)amino)methylene)-5-(1H-pyrrolo[2,3-b]pyridin-3-yl)cyclohexane-1,3-dione]", "IC50": "3 to 15"},
      {"smiles": "O=C1CC(c2cccc(F)c2F)CC(=O)C1=CNCCN1CCN(CCO)CC1", "note": "(stereo not shown) [Compound 387, 5-(2,3-difluorophenyl)-2-(((2-(4-(2-ethoxyl)piperazin-1-yl)ethyl)amino)methylene) cyclohexane-1,3-dione]", "IC50": "< 3"},
      {"smiles": "COCCN1c2ccccc2Sc2cc(C3CC(=O)C(=CNCCN4CCN(CCO)CC4)C(=O)C3)ccc21", "note": "(stereo not shown) [Compound 84, 2-(((2-(4-(2-hydroxyethyl)piperazin-1-yl)ethyl)amino)methylene)-5-(10-(2-methoxyethyl)-10H-phenothiazin-3-yl)cyclohexane-1,3-dione]", "IC50": "15 to 100"},
      {"smiles": "O=C1CC(c2ccccc2)CC(=O)C1=CNc1nc(C(=O)O)cs1", "note": "(stereo not shown) [Compound 148, 2-(((2,6-dioxo-4-phenylcyclo-hexylidene)methyl)amino) thiazole-4-carboxylic acid]", "IC50": "< 3"},
      {"smiles": "O=C1CC(c2ccc(C(F)(F)F)cc2)CC(=O)C1=CO", "note": "(stereo not shown) [Compound 437, 2-(hydroxymethylene)-5-(4-trifluoromethylphenyl) cyclohexane-1,3-dione]", "IC50": "3 to 15"},
      {"smiles": "O=C1CC(c2ccccc2Cl)CC(=O)C1=CO", "note": "(stereo not shown) [Compound 418, 2-(hydroxymethylene)-5-(2-chlorophenyl)cyclo-hexane-1,3-dione]", "IC50": "< 3"},
      {"smiles": "CC(C)CC1CC(=O)C(=CN(C)C)C(=O)C1", "note": "(stereo not shown) [Compound 276, 2-((dimethylamino)methylene)-5-isobutylcyclo-hexane-1,3-dione]", "IC50": "15 to 100"},
      {"smiles": "O=C1CC2(CCC2)CC(=O)C1=CNCCN1CCN(CCO)CC1", "note": "[Compound 86, 7-(((2-(4-(2-hydroxyethyl)piperazin-1-yl)ethyl)amino)methylene)-spiro[3.5]nonane-6,8-dione]", "IC50": "15 to 100"},
      {"smiles": "CN(C)CCNC=C1C(=O)CC(c2ccccc2N)CC1=O", "note": "(stereo not shown) [Compound 386, 5-(2-aminophenyl)-2-(((2-(dimethylamino)ethyl)amino)methylene) cyclohexane-1,3-dione]", "IC50": "< 3"},
      {"smiles": "CCOC(=O)[C@H](C)NC=C1C(=O)CC(c2ccccc2)CC1=O", "note": "(stereo partly drawn) [Compound 162, ethyl ((2,6-dioxo-4-phenylcyclo-hexylidene)methyl)-L-alaninate]", "IC50": "15 to 100"},
      {"smiles": "CN(C)CCNC=C1C(=O)CC(c2c(F)c(F)cc(F)c2F)CC1=O", "note": "(stereo not shown) [Compound 402, 2-(((2-(dimethylamino)ethyl)amino)methylene)-5-(2,3,5,6-tetrafluorophenyl) cyclohexane-1,3-dione]", "IC50": "< 3"},
      {"smiles": "CN(C)C=C1C(=O)C(C)(c2ccccc2)C1=O", "note": "(stereo not shown) [Compound 201, 4-((dimethylamino)methylene)-2-methyl-2-phenylcyclobutane-1,3-dione]", "IC50": "100 to 1000"},
      {"smiles": "O=C1CC(c2ccccc2)CC(=O)C1=CNCCN1CCNCC1", "note": "(stereo not shown) [Compound 236, 5-phenyl-2-(((2-(piperazin-1-yl)ethyl)amino)methylene) cyclohexane-1,3-dione]", "IC50": "3 to 15"},
      {"smiles": "CN(C)CCNC=C1C(=O)CC(c2ccccc2I)CC1=O", "note": "(stereo not shown) [Compound 300, 2-(((2-(dimethylamino)ethyl)amino)methylene)-5-(2-iodophenyl) cyclohexane-1,3-dione]", "IC50": "< 3"},
      {"smiles": "O=C1CC(c2c[nH]cn2)CC(=O)C1=CNCCN1CCN(CCO)CC1", "note": "(stereo not shown) [Compound 59, 2-(((2-(4-(2-hydroxyethyl)piperazin-1-yl)ethyl)amino)methylene)-5-(1H-imidazol-4-yl) cyclohexane-1,3-dione]", "IC50": "100 to 1000"},
      {"smiles": "O=C1CCC(c2ccc(F)cc2)C(=O)C1=CNCCN1CCN(CCO)CC1", "note": "(stereo not shown) [Compound 100, 4-(4-fluorophenyl)-2-(((2-(4-(2-hydroxyethyl)piperazin-1-yl)ethyl)amino)methylene)cyclohexane-1,3-dione]", "IC50": "15 to 100"},
      {"smiles": "O=C1CC(c2cccc3[nH]cc(Cl)c23)CC(=O)C1=CNCCN1CCN(CCO)CC1", "note": "(stereo not shown) [Compound 322, 5-(3-chloro-1H-indol-4-yl)-2-(((2-(4-(2-hydroxyethyl)piperazin-1-yl)ethyl)amino)methylene) cyclohexane-1,3-dione]", "IC50": "< 3"},
      {"smiles": "O=C1CC(c2cnc3c(ccc4cccnc43)c2)CC(=O)C1=CNCCN1CCN(CCO)CC1", "note": "(stereo not shown) [Compound 20, 2-(((2-(4-(2-hydroxyethyl)piperazin-1-yl)ethyl)amino)methylene)-5-(1,10-phenanthrolin-3-yl)cyclohexane-1,3-dione]", "IC50": "100 to 1000"},
      {"smiles": "O=C1CC(c2ccccc2)CC(=O)C1=CNc1cccnc1", "note": "(stereo not shown) [Compound 7, 5-phenyl-2-((pyridin-3-ylamino)methylene) cyclohexane-1,3-dione]", "IC50": "3 to 15"},
      {"smiles": "CC(O)=C1C(=O)CC(c2ccccc2)CC1=O", "note": "(stereo not shown) [Compound 449, 2-(1-hydroxyethylidene)-5-phenylcyclohexane-1,3-dione]", "IC50": "15 to 100"},
      {"smiles": "CN(C)CCNC=C1C(=O)CC(c2cscc2-c2ccccc2)CC1=O", "note": "(stereo not shown) [Compound 371, 2-(((2-(dimethylamino)ethyl)amino)methylene)-5-(4-phenylthiophen-3-yl)cyclohexane-1,3-dione]", "IC50": "< 3"},
      {"smiles": "COc1cccc(OC)c1C1CC(=O)C(=CO)C(=O)C1", "note": "(stereo not shown) [Compound 441, 2-(hydroxymethylene)-5-(2,6-dimethoxyphenyl) cyclohexane-1,3-dione]", "IC50": "15 to 100"},
      {"smiles": "O=C1CC(c2c3ccccc3cc3ccccc23)CC(=O)C1=CNCCN1CCN(CCO)CC1", "note": "(stereo not shown) [Compound 61, 5-(anthracen-9-yl)-2-(((2-(4-(2-hydroxyethyl)piperazin-1-yl)ethyl)amino)methylene) cyclohexane-1,3-dione]", "IC50": "< 3"},
      {"smiles": "O=C1CC(c2cccs2)CC(=O)C1=CO", "note": "(stereo not shown) [Compound 455, 2-(hydroxy-methylene)-5-(2-thiophen)cyclo-hexane-1,3-dione potassium salt]", "IC50": "3 to 15"},
      {"smiles": "O=C1CC(c2ccccc2)CC(=O)C1=CNC[C@@H](O)[C@H](O)[C@@H](O)[C@@H](O)CO", "note": "(stereo partly drawn) [Compound 163, 2-((((2R,3S,4S,5S)-2,3,4,5,6-pentahydroxyhexyl)amino)methylene)-5-phenylcyclohexane-1,3-dione]", "IC50": "100 to 1000"},
      {"smiles": "Cc1ccc(NC(=O)C2CC(=O)C(=CNCCN(C)C)C(=O)C2)cc1F", "note": "(stereo not shown) [Compound 380, 4-(((2-(dimethylamino)ethyl)amino)methylene)-N-(3-fluoro-4-methylphenyl)-3,5-dioxocyclohexane-1-carboxamide]", "IC50": "3 to 15"}
    ]}
  ]
}
